Legend:
[1] = tested on: ABCA1 phosphorylation; assay: Phosphorylation of ABCA1 in cells; format: cell-based
[2] = tested on: ABCA1 protein; assay: ABCA1 protein level in mouse peritoneal macrophages (Western); format: cell-based; conditions: for ABCA1 protein level, effect in words: mouse peritoneal macrophages, 3 hours, apoA-I 10 μg/ml, HDL2 50 μg protein/ml, MβCD 1 mM 5 min, apigenin 40 μM
Experimental: Cellular lipid efflux assays, apoA-I cell association, and chemical cross-linking: The assays were carried out as in (14). Generally, 293 cells were labeled by culturing overnight in media containing either [^3H]cholesterol, for cholesterol efflux, or [^3H]choline, for phospholipid efflux. The next day, cells were washed with fresh media before or after treatment as indicated, and then apoA-I was added as acceptor and incubated for the indicated period before the media and cells were collected for analysis. Mouse peritoneal macrophage cells were isolated from male mice by peritoneal lavage with PBS 3 days after intraperitoneal injection with 1 ml of 3.85% thioglycollate. The cells were labeled with […] [^3H]cholesterol overnight in DMEM and 0.2% BSA supplemented with 50 μg/ml acetylated LDL plus LXR/RXR ligands 22(R)-hydroxycholesterol and 9-cis retinoic acid (both 10 μM). After labeling, cells were washed and efflux was carried out with 10 μg/ml apoA-I for 3 hours. Then, cells and medium were collected for analysis. Cholesterol efflux was expressed as the percentage of the radioactivity released from the cells into the medium, relative to the total radioactivity in cells plus medium. For apoA-I cell association, cells were incubated with 0.2 μg/ml [^125 I]apoA-I in 0.2% BSA and DMEM for 1 hour at 37° C. After being washed three times with fresh media, cells were lysed with 0.1% SDS and 0.1N NaOH lysis buffer, and radioactivity was determined by a gamma counter.
(§1) Immunoprecipitation and immunoblot analysis of ABCA1: For immunoblot analysis of ABCA1, ABCA1-FLAG, and ABCA1delPEST-FLAG, transfected HEK293 cells, peritoneal macrophages, or primary hepatocytes were washed and scraped in PBS and lysed in RIPA buffer (10 mM Tris-HCl [pH 7.3], 1 mM MgCl2, 1.0% Nonidet P-40, 0.5% sodium deoxycholate, and 5 mM EDTA in the presence of protease inhibitors as follows: 0.5 μg/ml leupeptin, 1 μg/ml aprotinin, and 1 μg/ml pepstatin A) (Roche Molecular Biochemicals, Indianapolis, Ind., USA). Postnuclear supernatants containing the indicated amounts of protein were subjected to Western analysis using an anti-ABCA1 antiserum or anti-FLAG M2 antibody and chemiluminescence detection. The relative intensities of the bands were determined by densitometry. For cell surface ABCA1 analysis, cells were first biotinylated with 0.5 mg/ml EZ-Link Sulfo-NHS-SS-Biotin (Pierce Chemical Co., Rockford, Ill., USA) at 4° C. for 30 minutes. Then cells were lysed with RIPA buffer at 4° C. After centrifugation, the supernatant of cell lysates was incubated with anti-FLAG agarose beads overnight at 4° C. Following centrifugation and washing, the collected agarose beads were subjected to SDS-PAGE sample buffer with 100 mM 2-mercaptoethanol. The total or […] ABCA1 was detected by Western blot using either anti-FLAG antibody or streptavidin-horseradish peroxidase.

[3] = tested on: ABCA1 protein; assay: ABCA1 protein level in primary mouse hepatocytes (Western); format: cell-based; conditions: apoA-I 10 μg/ml 3 hours
Experimental: as §1, with “peroxidase. […]” for “peroxidase.”

[4] = tested on: ABCA1 protein; assay: ABCA1 protein level in mouse peritoneal macrophages (Western); format: cell-based; conditions: cultured cells, short-term incubations, data not shown
[5] = tested on: ABCA1 protein; assay: ABCA1 protein turnover and level in transiently transfected 293 cells (metabolic labeling, Western, cell surface biotinylation); format: cell-based, human
Text: Plasmid constructs and cell transfection: ABCA1-FLAG was constructed as described (18). ABCA1delPEST was based on ABCA1-FLAG. Using PCR, ABCA1delPEST was constructed by deleting a nucleotide sequence that encodes mouse ABCA1 amino acids 1283-1306 and was confirmed by sequencing. HEK293 cells, in 12- or 24-well collagen-coated plates, were transiently transfected with various plasmid constructs at indicated DNA concentrations with Lipofectamine 2000 (Invitrogen Corp., San Diego, Calif., USA) at 37° C. overnight (20 hours). A construct expressing green fluorescence protein (GFP) was routinely used to visually monitor transfection efficiency (i.e., the percentage of cells expressing GFP). The transfection efficiency of 293 cells was in the range of 50-80% of cells. […] In addition to performing multiple replicates within each experiment, all experiments were repeated on multiple separate occasions to confirm reproducibility of results.
as §1

[6] = tested on: ABCA1; conditions: macrophages loaded with acetyl-LDL and cholesterol ester; cited from earlier work
[7] = tested on: calpain protease; assay: Degradation of a fluorescent calpain protease substrate in cells; format: cell-based; conditions: data not shown
[8] = target: T1, ABCA1 (Mus musculus, UniProt P41233); assay: Apolipoprotein A-I infusion in mice, ABCA1 in liver and peritoneal macrophages; format: in vivo; set-up: from tissue; host or cells: mouse liver and peritoneal macrophages
Experimental: […] Mice were anesthetized intraperitoneally with 0.1 ml/30 g body weight of a solution containing 100 mg/ml ketamine and 30 mg/ml xylazine. ApoA-I (20 mg/kg body weight) or BSA as control was administered via femoral vein as a bolus injection. Four hours after injection, animals were euthanized and the liver was dissected out for analysis.

[9] = target: T1, ABCA1; assay: Calpain-catalyzed proteolysis of metabolically labeled ABCA1 in digitonin-permeabilized 293 cells; format: cell-based; set-up: expressed in transfected cells; host or cells: 293 cells, digitonin-permeabilized
Experimental: (§2) Calpain-catalyzed proteolysis of metabolically labeled ABCA1: Transiently transfected 293 cells were pulse-labeled by [^35S]methionine (0.5 mCi/ml) in 0.2% BSA and DMEM for 2 hours. Cells were washed three times with fresh media and placed on ice for 10 minutes. Then cells were permeabilized by addition of 80 μg/ml digitonin in DMEM and incubated on ice for 15 minutes. Next, the cells were washed twice with fresh DMEM, and then purified μ-calpain in DMEM plus 2 mM CaCl2 was added at the indicated concentration and incubated for 20 minutes at room temperature. Then cells were lysed by addition of 1 ml RIPA buffer with 40 μg/ml calpeptin. FLAG-tagged ABCA1 was immunoprecipitated by anti-FLAG agarose beads and subjected to quantitative analysis by PhosphorImager.

[10] = target: T2, ABCA1 (Mus musculus, UniProt P41233, DEL1283-1306); assay: as above; format: cell-based; conditions: permeabilized 293 cells, purified μ-calpain
T2 construct: expressed in transfected cells; host or cells: 293 cells, digitonin-permeabilized
Experimental: as §2

[11] = 293 cells, lactacystin 20 μM for 3 h
[12] = 293 cells, apoA-I 10 μg/ml 3 hours
[13] = time-course study of apoA-I infusion

T1 sequence (P41233 whole entry, the tested form may be a part): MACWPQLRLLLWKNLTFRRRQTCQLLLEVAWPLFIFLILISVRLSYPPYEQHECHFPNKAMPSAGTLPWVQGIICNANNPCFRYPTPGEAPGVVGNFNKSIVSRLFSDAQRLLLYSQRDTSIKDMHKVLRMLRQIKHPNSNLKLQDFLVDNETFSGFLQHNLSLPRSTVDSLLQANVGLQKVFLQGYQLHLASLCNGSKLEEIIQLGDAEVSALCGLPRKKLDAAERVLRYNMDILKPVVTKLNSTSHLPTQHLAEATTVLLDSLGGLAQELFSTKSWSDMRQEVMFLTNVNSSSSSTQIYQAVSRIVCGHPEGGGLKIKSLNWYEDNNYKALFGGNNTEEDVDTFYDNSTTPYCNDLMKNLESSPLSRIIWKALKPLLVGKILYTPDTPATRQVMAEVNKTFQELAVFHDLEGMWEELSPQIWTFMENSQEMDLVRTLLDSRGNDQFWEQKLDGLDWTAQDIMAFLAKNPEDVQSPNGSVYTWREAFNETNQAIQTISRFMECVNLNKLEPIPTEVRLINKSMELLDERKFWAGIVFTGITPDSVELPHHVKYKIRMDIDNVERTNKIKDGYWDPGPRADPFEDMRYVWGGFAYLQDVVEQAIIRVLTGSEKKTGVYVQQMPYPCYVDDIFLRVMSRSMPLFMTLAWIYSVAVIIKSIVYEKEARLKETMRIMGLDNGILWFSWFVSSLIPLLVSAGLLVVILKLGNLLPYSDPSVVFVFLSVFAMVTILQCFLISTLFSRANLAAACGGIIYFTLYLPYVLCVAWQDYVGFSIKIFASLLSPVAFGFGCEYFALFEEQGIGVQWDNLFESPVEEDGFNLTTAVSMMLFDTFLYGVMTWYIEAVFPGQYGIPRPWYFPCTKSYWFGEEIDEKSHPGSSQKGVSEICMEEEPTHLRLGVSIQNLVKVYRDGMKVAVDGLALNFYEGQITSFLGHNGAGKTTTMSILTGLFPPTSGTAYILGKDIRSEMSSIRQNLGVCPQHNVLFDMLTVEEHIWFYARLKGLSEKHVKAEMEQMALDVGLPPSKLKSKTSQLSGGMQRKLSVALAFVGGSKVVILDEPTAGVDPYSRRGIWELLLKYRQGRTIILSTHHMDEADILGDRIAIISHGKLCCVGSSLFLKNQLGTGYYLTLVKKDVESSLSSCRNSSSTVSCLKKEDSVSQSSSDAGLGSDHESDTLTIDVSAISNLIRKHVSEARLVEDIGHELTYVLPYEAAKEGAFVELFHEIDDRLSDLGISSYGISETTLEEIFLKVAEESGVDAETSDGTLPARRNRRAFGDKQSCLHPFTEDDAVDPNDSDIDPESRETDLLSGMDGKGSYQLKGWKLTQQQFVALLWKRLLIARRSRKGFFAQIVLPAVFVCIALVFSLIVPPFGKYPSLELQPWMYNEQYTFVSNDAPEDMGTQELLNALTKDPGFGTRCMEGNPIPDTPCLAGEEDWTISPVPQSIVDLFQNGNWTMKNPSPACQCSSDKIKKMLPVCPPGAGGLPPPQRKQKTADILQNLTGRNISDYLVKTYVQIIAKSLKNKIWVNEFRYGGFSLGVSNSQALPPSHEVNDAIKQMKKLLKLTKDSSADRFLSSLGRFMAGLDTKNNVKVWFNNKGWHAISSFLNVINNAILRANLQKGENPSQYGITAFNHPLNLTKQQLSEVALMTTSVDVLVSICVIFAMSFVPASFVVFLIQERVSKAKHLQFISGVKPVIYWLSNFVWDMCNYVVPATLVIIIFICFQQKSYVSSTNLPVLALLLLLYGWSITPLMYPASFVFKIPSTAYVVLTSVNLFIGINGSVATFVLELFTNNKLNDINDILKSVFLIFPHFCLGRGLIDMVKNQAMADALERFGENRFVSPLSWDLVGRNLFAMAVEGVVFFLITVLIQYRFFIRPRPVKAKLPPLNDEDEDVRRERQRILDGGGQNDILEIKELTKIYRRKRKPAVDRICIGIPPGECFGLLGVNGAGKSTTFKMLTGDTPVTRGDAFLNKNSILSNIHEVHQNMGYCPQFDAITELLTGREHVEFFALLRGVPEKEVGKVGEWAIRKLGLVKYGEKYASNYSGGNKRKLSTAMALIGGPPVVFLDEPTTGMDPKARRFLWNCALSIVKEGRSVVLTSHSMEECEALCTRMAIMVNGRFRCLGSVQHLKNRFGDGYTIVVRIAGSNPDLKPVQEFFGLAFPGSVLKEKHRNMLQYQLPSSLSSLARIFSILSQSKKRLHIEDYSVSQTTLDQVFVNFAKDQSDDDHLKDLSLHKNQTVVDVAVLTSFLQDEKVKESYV
T2 sequence (P41233 with tags, fused parts or gaps DEL1283-1306): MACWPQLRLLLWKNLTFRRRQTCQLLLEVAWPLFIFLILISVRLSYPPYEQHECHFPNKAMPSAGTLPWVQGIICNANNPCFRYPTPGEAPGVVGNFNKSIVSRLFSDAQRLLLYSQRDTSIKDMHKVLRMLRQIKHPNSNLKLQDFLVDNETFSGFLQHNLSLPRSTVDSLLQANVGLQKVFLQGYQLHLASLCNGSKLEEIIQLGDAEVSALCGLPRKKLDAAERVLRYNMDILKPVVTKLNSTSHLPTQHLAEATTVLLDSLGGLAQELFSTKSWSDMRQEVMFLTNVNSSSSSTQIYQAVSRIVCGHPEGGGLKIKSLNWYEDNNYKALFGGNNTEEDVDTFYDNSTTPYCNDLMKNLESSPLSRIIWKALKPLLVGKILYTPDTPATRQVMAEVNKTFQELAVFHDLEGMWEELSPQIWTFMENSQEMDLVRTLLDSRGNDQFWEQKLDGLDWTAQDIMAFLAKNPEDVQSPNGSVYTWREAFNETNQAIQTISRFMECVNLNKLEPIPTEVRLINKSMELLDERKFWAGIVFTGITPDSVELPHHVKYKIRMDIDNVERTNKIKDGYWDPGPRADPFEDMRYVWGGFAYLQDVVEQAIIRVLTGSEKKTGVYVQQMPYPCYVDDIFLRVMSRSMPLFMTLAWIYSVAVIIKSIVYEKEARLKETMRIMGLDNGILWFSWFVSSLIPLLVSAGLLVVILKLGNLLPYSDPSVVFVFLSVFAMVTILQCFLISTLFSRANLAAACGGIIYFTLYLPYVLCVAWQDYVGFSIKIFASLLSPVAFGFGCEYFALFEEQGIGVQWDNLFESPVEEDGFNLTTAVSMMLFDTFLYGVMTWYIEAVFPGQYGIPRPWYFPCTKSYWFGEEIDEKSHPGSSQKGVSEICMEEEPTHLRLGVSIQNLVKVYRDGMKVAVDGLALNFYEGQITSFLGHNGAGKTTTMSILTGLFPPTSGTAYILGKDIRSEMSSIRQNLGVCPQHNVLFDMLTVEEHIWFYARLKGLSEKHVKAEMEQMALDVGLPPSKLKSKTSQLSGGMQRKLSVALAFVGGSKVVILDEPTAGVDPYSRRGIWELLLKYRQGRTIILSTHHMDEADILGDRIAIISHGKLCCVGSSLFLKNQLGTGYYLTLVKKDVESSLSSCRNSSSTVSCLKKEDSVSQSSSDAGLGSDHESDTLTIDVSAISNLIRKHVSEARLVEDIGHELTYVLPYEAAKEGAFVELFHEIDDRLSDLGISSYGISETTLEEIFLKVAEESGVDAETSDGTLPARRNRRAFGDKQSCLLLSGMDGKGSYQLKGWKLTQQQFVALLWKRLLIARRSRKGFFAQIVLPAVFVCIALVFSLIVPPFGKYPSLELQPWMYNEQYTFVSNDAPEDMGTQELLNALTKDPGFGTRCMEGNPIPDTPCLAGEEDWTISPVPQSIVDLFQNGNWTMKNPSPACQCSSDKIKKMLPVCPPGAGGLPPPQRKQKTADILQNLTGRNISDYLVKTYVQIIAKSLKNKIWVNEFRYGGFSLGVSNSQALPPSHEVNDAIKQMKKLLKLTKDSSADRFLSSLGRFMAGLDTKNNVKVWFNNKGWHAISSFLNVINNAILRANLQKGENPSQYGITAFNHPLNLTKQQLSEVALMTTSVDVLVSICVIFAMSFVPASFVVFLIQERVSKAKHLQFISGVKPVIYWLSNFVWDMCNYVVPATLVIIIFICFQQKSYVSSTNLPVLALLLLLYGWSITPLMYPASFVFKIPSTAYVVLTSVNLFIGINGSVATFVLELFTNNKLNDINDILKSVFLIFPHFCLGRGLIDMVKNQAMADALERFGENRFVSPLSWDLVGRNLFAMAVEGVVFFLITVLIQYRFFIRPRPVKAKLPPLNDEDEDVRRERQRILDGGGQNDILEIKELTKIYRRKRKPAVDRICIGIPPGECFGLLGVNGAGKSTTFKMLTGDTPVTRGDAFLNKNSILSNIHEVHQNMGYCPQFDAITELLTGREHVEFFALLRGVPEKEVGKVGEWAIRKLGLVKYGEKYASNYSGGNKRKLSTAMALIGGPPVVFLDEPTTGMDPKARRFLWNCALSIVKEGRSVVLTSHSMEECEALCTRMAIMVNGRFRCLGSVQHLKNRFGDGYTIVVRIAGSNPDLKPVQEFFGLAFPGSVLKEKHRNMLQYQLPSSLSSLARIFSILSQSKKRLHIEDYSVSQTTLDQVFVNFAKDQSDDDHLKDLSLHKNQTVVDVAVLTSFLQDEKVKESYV

Molecule: O=c1cc(-c2ccc(O)cc2)oc2cc(O)cc(O)c12 [apigenin, reference compound]
- phosphorylation of ABCA1 [1]: decrease
- ABCA1 protein level, effect in words [2]: increase

Molecule: CCCC[C@@H](C=O)NC(=O)[C@H](CC(C)C)NC(=O)OCc1ccccc1 [calpeptin]
- ABCA1 protein level, effect in words [3]: increased
- ABCA1 mRNA [4]: without any change
- effect of calpeptin on ABCA1delPEST (PEST sequence deleted) ([5]; 293 cells, calpeptin 30 μg/ml for 3 hours): abolished
- mean increase in ABCA1 protein levels ([5]; 293 cells, calpeptin 30 μg/ml for 3 hours, p<0.001): 3.84±0.32 fold
- cell surface ABCA1, effect in words ([5]; calpeptin): marked increase
- ABCA1 protein level, effect in words [2]: increased

Molecule: CC(=O)N[C@@H](CSC(=O)[C@]1([C@@H](O)C(C)C)NC(=O)[C@H](C)[C@@H]1O)C(=O)O [lactacystin]
- accumulation of total and cell surface ubiquitinated ABCA1 [5, 11]: increase in the accumulation
- increase in total ABCA1 levels [5, 11]: 2.2 fold
- increase in cell surface ABCA1 levels ([5]; 293 cells, lactacystin, data not shown): 2.2 fold
- ABCA1 level [6]: increased
- ABCA1 level ([2]; acetyl-LDL-loaded, LXR/RXR-activated macrophages, data not shown): increased

Molecule: C=C1[C@@H](O)[C@@H]2O[C@]3(CC[C@H](/C=C/[C@@H](C)[C@@H]4CC(C)=C[C@@]5(O[C@H](C[C@@](C)(O)C(=O)O)CC[C@H]5O)O4)O3)CC[C@H]2O[C@@H]1[C@@H](O)C[C@H](C)[C@H]1O[C@@]2(CCCCO2)CC[C@H]1C [okadaic acid]
- ability of apoA-I to increase ABCA1 protein levels ([2]; macrophages): abolished

Molecule: apoA-I: Human apoA-I (BIODESIGN International), dialyzed against PBS; apolipoprotein ligand of ABCA1
- degradation of fluorescent calpain protease substrate [7]: no change
- ABCA1 protein level, effect in words [3]: rapid, marked increase
- ABCA1 mRNA [4]: did not change
- cellular expression levels of ABCA1delPEST [5, 12]: no effect
- protein levels of Walker motif mutant ABCA1 [5, 12]: no increase
- ABCA1 protein level, effect in words ([5]; 293 cells, wild type ABCA1, apoA-I 10 μg/ml 3 hours): rapid, marked increase
- level of ABCA1-W590S mutant ([5]; mutant binds apoA-I but does not mediate lipid efflux, data not shown): fails to increase
- ubiquitination levels of ABCA1 ([5]; with or without proteasome inhibitors, data not shown): did not decrease
- ABCA1 protein in liver ([8]; mice, intravenous apoA-I 20 mg/kg, 4 hours, chow-fed): induction
- ABCA1 protein in peritoneal macrophages ([8]; mice, intravenous apoA-I, 4 hours, high-fat, high-cholesterol diet for 7 days): induction
- ABCA1 mRNA levels in liver ([8]; quantitative real-time PCR, data not shown): did not significantly alter
- ABCA1 protein levels after 24 hours [8, 13]: returned to base line
- time for which the increase in ABCA1 was sustained [8, 13]: 8 h
- phosphorylation of ABCA1 [1]: time- and dose-dependent reduction
- ability of calpain to mediate proteolysis of ABCA1 after pre-treatment ([9]; apoA-I 10 μg/ml for 3 hours prior to permeabilization): abolished
- cell surface expression of ABCA1 ([2]; macrophages, 3 hours apoA-I, biotinylation): increased
- ABCA1 protein level, effect in words [2]: rapid, marked increase
- effect on ABCA1 in primary macrophage cultures [2]: stabilization

Molecule: apoE: apoprotein ligand of ABCA1
- effect on ABCA1 in primary macrophage cultures [2]: stabilization

Molecule: methy-β-cyclodextrin
- ABCA1 protein level, effect in words [2]: no effect

B1: μ-calpain: Purified μ-calpain protease from Calbiochem-Novabiochem (protein, UniProt P07384 2-714; P04632 1-268, looked up)
Calpain-1 catalytic subunit: SEEIITPVYCTGVSAQVQKQRARELGLGRHENAIKYLGQDYEQLRVRCLQSGTLFRDEAFPPVPQSLGYKDLGPNSSKTYGIKWKRPTELLSNPQFIVDGATRTDICQGALGDCWLLAAIASLTLNDTLLHRVVPHGQSFQNGYAGIFHFQLWQFGEWVDVVVDDLLPIKDGKLVFVHSAEGNEFWSALLEKAYAKVNGSYEALSGGSTSEGFEDFTGGVTEWYELRKAPSDLYQIILKALERGSLLGCSIDISSVLDMEAITFKKLVKGHAYSVTGAKQVNYRGQVVSLIRMRNPWGEVEWTGAWSDSSSEWNNVDPYERDQLRVKMEDGEFWMSFRDFMREFTRLEICNLTPDALKSRTIRKWNTTLYEGTWRRGSTAGGCRNYPATFWVNPQFKIRLDETDDPDDYGDRESGCSFVLALMQKHRRRERRFGRDMETIGFAVYEVPPELVGQPAVHLKRDFFLANASRARSEQFINLREVSTRFRLPPGEYVVVPSTFEPNKEGDFVLRFFSEKSAGTVELDDQIQANLPDEQVLSEEEIDENFKALFRQLAGEDMEISVKELRTILNRIISKHKDLRTKGFSLESCRSMVNLMDRDGNGKLGLVEFNILWNRIRNYLSIFRKFDLDKSGSMSAYEMRMAIESAGFKLNKKLYELIITRYSEPDLAVDFDNFVCCLVRLETMFRFFKTLDTDLDGVVTFDLFKWLQLTMFA
Calpain small subunit 1: MFLVNSFLKGGGGGGGGGGGLGGGLGNVLGGLISGAGGGGGGGGGGGGGGGGGGGGTAMRILGGVISAISEAAAQYNPEPPPPRTHYSNIEANESEEVRQFRRLFAQLAGDDMEVSATELMNILNKVVTRHPDLKTDGFGIDTCRSMVAVMDSDTTGKLGFEEFKYLWNNIKRWQAIYKQFDTDRSGTICSSELPGAFEAAGFHLNEHLYNMIIRRYSDESGNMDFDNFISCLVRLDAMFRAFKSLDKDGTGQIQVNIQEWLQLTMYS
- degradation of ABCA1delPEST [10]: no appreciable degradation
- degradation of wild type ABCA1 ([9]; permeabilized 293 cells, purified μ-calpain): efficient degradation

Reference: patent US20040096851A1, “ABCA1 PEST domain-related compositions and methods” (priority 2002, published 2004)
